The conditions of assay [1]: in words; previously reported; cited from earlier work.
The test system of assay [2] is liver, spleen, lung, kidney, heart and thymus of Balb/c mice. As to the kind of experiment: Biodistribution of reporter levels post-transfection of mRNA or pDNA with CPPs in vivo (tissue homogenate). The method, then:
FIG. 3: Biodistribution of reporter levels post-transfection of mRNA or pDNA with NFs or PFs CPPs in vivo. Reporter gene product levels were evaluated from the whole tissue homogenates collected post mortem. Results are shown as the fold change to mRNA or pDNA treated mice.
The transfection complexes (CPP/mRNA) were formed using 10 μg of mRNA mixed with each peptide at indicated charge ratios (CRs) in MQ water in a final volume of 100 μl. CRs were calculated theoretically and account for both the positive charges of the peptide and negative charges of the nucleic acid. The transfection complexes (CPP/mRNA and CPP/pDNA) were formed using 50 μg of mRNA mixed with each peptide at indicated charge ratios (CRs) in MQ water in a final volume of 168 μl. The complexes were incubated for 30 minutes at room temperature and then mixed with equal volume of 10% glucose (resulting in a final solution of 5% glucose in a total volume of 200 μl for 10 μg dose groups and 336 μl for 50 μg dose groups) and immediately injected intravenously via the tail vein.
The reporter gene (luciferase) expression levels were evaluated from the tissue homogenate post mortem 16-24 h after single injection.
In order to determine to which organs in vivo mRNAs may be delivered to with NickFect or PepFect CPPs, mRNA complexes with NF55, NF71 and PF14 were formed and injected through the tail vein of Balb/c mice (FIG. 3A). The organs were harvested 24 hours after the single injection and reporter signal was measured from whole tissue homogenates. The biodistribution of reporter levels was measured in liver, spleen, lung, kidney, heart and thymus.
In order to compare the biodistribution profiles between harvested organs when using either mRNA or pDNA as cargo, NF424 was used to transfect these 2 types of nucleic acids in vivo (FIG. 3B and Table 4).

Another assay relates to CHO-K1 cells. As to the kind of experiment: Comparison of reporter levels in cells post-transfection of pDNA or mRNA delivered by CPPs. Type of assay: cell-based. Conditions: in words; mRNA cargo; FIG. 2. As for the experimental part: FIG. 2: Comparison of reporter levels in cells post-transfection of pDNA or mRNA delivered by CPPs (P14, NF55 and NF71; relative light units normalised to total protein in the cell lysate (RLU/mg)). Naked mRNA and untreated cells (UT) were used as controls.
Adherent CHO-K1 cells were grown in Dulbecco's Modified Eagle's Medium (DMEM), which were supplemented with 0.1 mM non-essential amino acids, 1.0 mM sodium pyruvate, 100 U/ml penicillin, and […]. For complete media, 10% (final) fetal bovine serum (FBS) was added. Cells were maintained in a humidified incubator at 37 °C, 5% CO2. Cell viability and confluence was assessed daily and the cell density was reduced regularly. For cell counting, we used the CytoSMART cell counter accompanied by 0.4% trypan blue staining prior measurement. The multi-well plates with cell cultures used for experiments were incubated in a humidified incubator at 37 °C, 5% CO2.
For in vitro experiments 0.1 μg of nucleic acid (plasmid DNA (pDNA) or mRNA) was used per 96-well plate well. For CPP/NA complex formation, the diluted NA was mixed with CPP in water. Complexes were formed based on the theoretical charge ratio (CR) of positive charges from the peptide in excess to the negative charges from nucleic acid backbone, at charge ratio 3:1 with peptide in excess. […]
For reporter luminescence (expressed from firefly luciferase encoding mRNA or plasmid pDNA) assessment in adherent cell culture, 10,000 cells per 96-well plate well were seeded in 100 μl of media one day prior to transfection. […]
24 hours post-transfection, the media was aspirated, cells were washed with 1×PBS, and 30 μl of lysis buffer (0.1% Triton X100 in 1×PBS) was added. […] From the lysate, 20 μl was transferred to a black frame white well 96-well plate for luminescence measurement after addition of substrate luciferin (PerkinElmer) in buffer. The luminescence signal was detected with GloMax® 96 microplate luminometer equipped with GloMax® 1.9.2 software (Promega). […]

Where [3] appears, read: mRNA delivery, i.v. tail vein, 24 h after single injection, FIG. 3: fold change to mRNA or pDNA treated mice.

Consider `CCCCCCCCCCCCCCCCCC(=O)N[C@@H](C)C(=O)NCC(=O)N[C@@H](Cc1ccc(O)cc1)C(=O)N[C@@H](CC(C)C)C(=O)N[C@@H](CC(C)C)C(=O)NCC(=O)NCCC[C@H](N)C(=O)N[C@H](C(=O)N[C@@H](CC(N)=O)C(=O)N[C@@H](CC(C)C)C(=O)N[C@@H](CCCCN)C(=O)N[C@@H](C)C(=O)N[C@@H](CC(C)C)C(=O)N[C@@H](C)C(=O)N[C@@H](C)C(=O)N[C@@H](CC(C)C)C(=O)N[C@@H](C)C(=O)N[C@@H](CCCCN)C(=O)N[C@@H](C)C(=O)N[C@H](C(=O)N[C@@H](CC(C)C)C(N)=O)[C@@H](C)CC)[C@@H](C)CC` [NF55], for which the pDNA delivery efficiency entry in assay [1] was “excellent vector for the delivery of DNA in vivo”. Also, in assay [2] (in words, mRNA cargo), the “Organ distribution of mRNA delivery” value is reported as “much higher than in any other organ”. Besides, in assay [2] (setting [3]), the “Reporter level, Liver” value was found to be 284; the “Reporter level, Lung” value is 23 465; the “Reporter level, Spleen” value was 79 879. Moreover, in assay [2] (mRNA, 24 h after single i.v. injection), the “Delivery of mRNA to the spleen relative to delivery to the lungs” value was found to be 3.5 times. Moreover, in the assay on CHO-K1 cells, the “Efficiency of mRNA transfection (parallel pDNA/mRNA comparison)” value is reported as “very efficient for mRNA transfection”.

These data come from patent US20260355330A1, “CELL PENETRATING PEPTIDES AND USES THEREOF” (VECTIOPEP OÜ, priority 2022, published 2026).
